In brackets after ≈: the same amount, converted by molar mass.

This assay relates to M17-SYNwt cells. As to the kind of experiment: α-synuclein cytotoxicity assay (LDH leakage from paraquat-treated α-synuclein over-expressing neuroblastoma cells). In kind it is cell-based, human. The note with it: for %I: percent inhibition of synuclein cytotoxicity at most effective concentration of test compound, relative to untreated paraquat cells; for %I / EC50: paraquat 32 mM, 40 hours, LDH release; for EC50: Homo sapiens, Neuroblastoma cell, 10 point curves in duplicate. As for the experimental part:
Subsequently, LDH activity was determined using Promega Cytotox 96 NonRadioactive cytotoxicity assay, (Cat. G1780) according the supplier's instructions.
This corresponds to the following equation: (LDHreleaseoftreatedparaquatcellsatnon-effectiveconcentrationoftestcmpd)−(LDHreleaseoftreatedparaquatcellsatmosteffectiveconcentrationoftestcmpd)/(LDHreleaseofuntreatedparaquatcells)−(LDHreleasecontrolcells)*100% [formula]
1,2,4-thiadazole compounds made according to the methods described herein were screened for activity using the α-synuclein cytotoxicity assay as described above. Dose responses were carried out on all compounds found to be active (10 point curves in duplicate).

Turning to `CC1CN(c2nc(Cc3ccc(F)cc3)ns2)CCN1C(=O)Nc1ccccc1C(F)(F)F` (centres unmarked) [Compound 18, N-(2-trifluoromethylphenyl)-4-[3-(4-fluorobenzyl)-1,2,4-thiadiazol-5-yl]-2-methylpiperazine-1-carboxamide], the “%I” value was determined as 41%.

In general, EC50 refers to the concentration that produces a half-maximal response. For the molecule `Cc1cccc(C)c1NC(=O)N1CCN(c2nc(Cc3ccc(F)cc3)ns2)CC1C` (centres unmarked) [Compound 19, N-(2,6-dimethylphenyl)-4-[3-(4-fluorobenzyl)-1,2,4-thiadiazol-5-yl]-2-methylpiperazine-1-carboxamide], a half-maximal response (EC50) required 0.2 µg/mL (≈ 0.455 µM) and the “%I” value was 95%. Further, the “LDH activity in the medium” value (Figure 2, dose response in paraquat-treated M17-SYNwt cells) is reported as “able, in a dose-dependent manner, to reduce LDH activity in the medium”.

As to `Cc1ccc(NC(=O)N2CCN(c3nc(Cc4ccc(F)cc4)ns3)CC2C)c(C)c1` (centres unmarked) [Compound 20, N-(2,4-dimethylphenyl)-4-[3-(4-fluorobenzyl)-1,2,4-thiadiazol-5-yl]-2-methylpiperazine-1-carboxamide], the EC50 came out at 0.76 µg/mL (≈ 1.73 µM) and the “%I” value is 106%.

`CC1CN(c2nc(Cc3ccc(F)cc3)ns2)CCN1C(=O)Nc1ccc(F)cc1F` (centres unmarked) [Compound 23, N-(2,4-difluorophenyl)-4-[3-(4-fluorobenzyl)-1,2,4-thiadiazol-5-yl]-2-methylpiperazine-1-carboxamide]: the EC50 came out at 0.94 µg/mL (≈ 2.1 µM) and the “%I” value amounted to 66%.

On to `Cc1cccc(C)c1NC(=O)N1CCN(c2nc(Cc3ccc(F)cc3)ns2)CC1` [Compound 24, N-(2,6-dimethylphenyl)-4-[3-(4-fluorobenzyl)-1,2,4-thiadiazol-5-yl]piperazine-1-carboxamide], for which the midpoint of the response, the EC50, lay at 1.2 µg/mL (≈ 2.82 µM) and the “%I” value was 124%.

Consider `CC1CN(c2nc(Cc3ccc(F)cc3)ns2)CCN1C(=O)Nc1cccc2ccccc12` (centres unmarked) [Compound 25, N-1-naphtyl-4-[3-(4-fluorobenzyl)-1,2,4-thiadiazol-5-yl]-2-methylpiperazine-1-carboxamide], for which the EC50 was found to be 1.69 µg/mL (≈ 3.66 µM) and the “%I” value is listed as 97%.

Consider `CC1CN(c2nc(Cc3ccc(F)cc3)ns2)CCN1C(=O)Nc1ccc(F)c(F)c1` (centres unmarked) [Compound 26, N-(3,4-difluorophenyl)-4-[3-(4-fluorobenzyl)-1,2,4-thiadiazol-5-yl]-2-methylpiperazine-1-carboxamide], for which the “%I” value turned out to be 70%.

For `COc1ccc(NC(=O)N2CCN(c3nc(Cc4ccc(F)cc4)ns3)CC2)c(OC)c1` [Compound 27, N-(2,4-dimethoxyphenyl)-4-[3-(4-fluorobenzyl)-1,2,4-thiadiazol-5-yl]piperazine-1-carboxamide], the “%I” value is 67%.

With `O=C(Nc1ccc(F)c(F)c1)N1CCN(c2nc(Cc3ccc(F)cc3)ns2)CC1` [Compound 28, N-(3,4-difluorophenyl)-4-[3-(4-fluorobenzyl)-1,2,4-thiadiazol-5-yl]piperazine-1-carboxamide], the “%I” value is on record as 64%.

On to `COc1cc(NC(=O)N2CCN(c3nc(Cc4ccc(F)cc4)ns3)CC2C)cc(OC)c1` (centres unmarked) [Compound 29, N-(3,5-dimethoxyphenyl)-4-[3-(4-fluorobenzyl)-1,2,4-thiadiazol-5-yl]-2-methylpiperazine-1-carboxamide], for which the “%I” value is 51%.

Take `CC(C)(C)c1ccc(S(=O)(=O)N2CCN(c3nc(Cc4ccc(F)cc4)ns3)CC2)cc1` [Compound 30, 1-[4-tert-butylphenylsulfonyl]-4-[3-(4-fluorobenzyl)-1,2,4-thiadiazol-5-yl]piperazine]: the “%I” value is listed as 51%.

In the case of `COc1ccc(S(=O)(=O)N2CCN(c3nc(Cc4ccc(Cl)cc4)ns3)CC2)cc1` [Compound 31, 1-[4-methoxyphenylsulfonyl]-4-[3-(4-chlorobenzyl)-1,2,4-thiadiazol-5-yl]piperazine], the midpoint of the response, the EC50, lay at 0.000169 µg/mL (≈ 0.000363 µM) and the “%I” value came out at 59%.

In the case of `COc1ccc(S(=O)(=O)N2CCN(c3nc(Cc4ccc(F)cc4)ns3)CC2)cc1` [Compound 32, 1-[4-methoxyphenylsulfonyl]-4-[3-(4-fluorobenzyl)-1,2,4-thiadiazol-5-yl]piperazine], a half-maximal effect (EC50) was put at 0.0024 µg/mL (≈ 0.00535 µM) and the “%I” value came to 78%.

Turning to `O=S(=O)(c1ccc(F)cc1)N1CCN(c2nc(Cc3ccc(Cl)cc3)ns2)CC1` [Compound 33, 1-[4-fluorophenylsulfonyl]-4-[3-(4-chlorobenzyl)-1,2,4-thiadiazol-5-yl]piperazine], the EC50 was found to be 0.00282 µg/mL (≈ 0.00622 µM) and the “%I” value was 53%.

On to `Cc1ccc(Cc2nsc(N3CCN(S(=O)(=O)c4ccc(Cl)cc4)C(C)C3)n2)cc1` (centres unmarked) [Compound 34, 1-[4-chlorophenylsulfonyl]-4-[3-(4-methylbenzyl)-1,2,4-thiadiazol-5-yl]-2-methylpiperazine], for which it took 0.0657 µg/mL (≈ 0.142 µM) to reach a half-maximal effect (EC50) and the “%I” value came out at 66%.

With `Cc1ccc(Cc2nsc(N3CCN(S(=O)(=O)c4cccc5ccccc45)CC3)n2)cc1` [Compound 35, 1-[1-naphtylsulfonyl]-4-[3-(4-methylbenzyl)-1,2,4-thiadiazol-5-yl]piperazine], the response was half-maximal at 0.0472 µg/mL (≈ 0.102 µM) (EC50) and the “%I” value was determined as 47%.

For `Cc1ccc(Cc2nsc(N3CCN(S(=O)(=O)c4cc(Cl)ccc4Cl)C(C)C3)n2)cc1` (centres unmarked) [Compound 36, 1-[2,5-dichlorophenylsulfonyl]-4-[3-(4-methylbenzyl)-1,2,4-thiadiazol-5-yl]-2-methylpiperazine], the EC50 is 0.1 µg/mL (≈ 0.201 µM) and the “%I” value turned out to be 52%.

As to `Cc1ccc(Cc2nsc(N3CCN(S(=O)(=O)c4c(C)cc(C)cc4C)CC3)n2)cc1` [Compound 37, 1-[2,4,6-trimethylphenylsulfonyl]-4-[3-(4-methylbenzyl)-1,2,4-thiadiazol-5-yl]piperazine], the EC50 was 0.0731 µg/mL (≈ 0.16 µM) and the “%I” value turned out to be 48%.

On to `Cc1ccc(Cc2nsc(N3CCN(S(=O)(=O)c4ccc5ccccc5c4)C(C)C3)n2)cc1` (centres unmarked) [Compound 38, 1-[2-naphtylsulfonyl]-4-[3-(4-methylbenzyl)-1,2,4-thiadiazol-5-yl]-2-methylpiperazine], for which the EC50 worked out at 0.13 µg/mL (≈ 0.272 µM) and the “%I” value is recorded as 78%.

In the case of `O=S(=O)(c1cc(Cl)ccc1Cl)N1CCN(c2nc(Cc3ccc(Cl)cc3)ns2)CC1` [Compound 39, 1-[2,5-dichlorophenylsulfonyl]-4-[3-(4-chlorobenzyl)-1,2,4-thiadiazol-5-yl]piperazine], the response was half-maximal at 0.16 µg/mL (≈ 0.318 µM) (EC50) and the “%I” value is listed as 25%.

Turning to `Cc1ccc(Cc2nsc(N3CCN(S(=O)(=O)c4cccc5ccccc45)C(C)C3)n2)cc1` (centres unmarked) [Compound 41], the EC50 is 0.53 µg/mL (≈ 1.11 µM) and the “%I” value was 54%.

Take `Cc1ccc(Cc2nsc(N3CCN(S(=O)(=O)c4ccc(C(C)(C)C)cc4)C(C)C3)n2)cc1` (centres unmarked) [Compound 42, 1-[4-tert-butylphenylsulfonyl]-4-[3-(4-methylbenzyl)-1,2,4-thiadiazol-5-yl]-2-methylpiperazine]: the concentration giving a half-maximal response (EC50) came to 0.87 µg/mL (≈ 1.79 µM) and the “%I” value is reported as 33%.

Regarding `CC1CN(c2nc(Cc3ccc(Cl)cc3)ns2)CCN1S(=O)(=O)c1cccc2ccccc12` (centres unmarked) [Compound 43, 1-[1-naphtylsulfonyl]-4-[3-(4-chlorobenzyl)-1,2,4-thiadiazol-5-yl]-2-methylpiperazine], the midpoint of the response, the EC50, lay at 0.89 µg/mL (≈ 1.78 µM) and the “%I” value is 35%.

`COc1cccc(S(=O)(=O)N2CCN(c3nc(Cc4ccc(F)cc4)ns3)CC2)c1` [Compound 44, 1-[3-methoxyphenylsulfonyl]-4-[3-(4-fluorobenzyl)-1,2,4-thiadiazol-5-yl]piperazine]: the EC50 was 0.0571 µg/mL (≈ 0.127 µM) and the “%I” value was 99%.

Regarding `Cc1ccc(Cc2nsc(N3CCN(S(=O)(=O)c4c(C)cc(C)cc4C)C(C)C3)n2)cc1` (centres unmarked) [Compound 45, 1-[2,4,6-trimethylphenylsulfonyl]-4-[3-(4-methylbenzyl)-1,2,4-thiadiazol-5-yl]-2-methylpiperazine], the EC50 stood at 1.2 µg/mL (≈ 2.55 µM) and the “%I” value was 56%.

For the molecule `CC1CN(c2nc(Cc3ccc(F)cc3)ns2)CCN1S(=O)(=O)c1ccccc1` (centres unmarked) [Compound 47, 1-phenylsulfonyl-4-[3-(4-fluorobenzyl)-1,2,4-thiadiazol-5-yl]-2-methylpiperazine], the “%I” value is listed as 129%.

As for `CC(=O)Nc1ccc(S(=O)(=O)N2CCN(c3nc(Cc4ccc(C)cc4)ns3)CC2C)cc1` (centres unmarked) [Compound 48, 1-[4-acetamidophenylsulfonyl]-4-[3-(4-methylbenzyl)-1,2,4-thiadiazof-5-yl]-2-methylpiperazine], the EC50 was 0.00844 µg/mL (≈ 0.0174 µM) and the “%I” value was 91%.

Consider `CC(=O)Nc1ccc(S(=O)(=O)N2CCN(c3nc(Cc4ccc(C)cc4)ns3)CC2)cc1` [Compound 49, 1-[4-acetamidophenylsulfonyl]-4-[3-(4-methylbenzyl)-1,2,4-thiadiazol-5-yl]piperazine], for which the EC50 turned out to be 0.000106 µg/mL (≈ 0.000225 µM) and the “%I” value stood at 77%.

With `Cc1ccc(Cc2nsc(N3CCN(S(=O)(=O)c4ccc(C)cc4)C(C)C3)n2)cc1` (centres unmarked) [Compound 50, 1-[4-methylphenylsulfonyl]-4-[3-(4-methylbenzyl)-1,2,4-thiadiazol-5-yl]-2-methylpiperazine], the “%I” value worked out at 105%.

For `COc1ccc(S(=O)(=O)N2CCN(c3nc(Cc4ccc(Cl)cc4)ns3)CC2C)cc1` (centres unmarked) [Compound 51, 1-[4-methoxyphenylsulfonyl]-4-[3-(4-chlorobenzyl)-1,2,4-thiadiazol-5-yl]-2-methylpiperazine], a half-maximal effect (EC50) was put at 0.00135 µg/mL (≈ 0.00281 µM) and the “%I” value is listed as 94%.

Source of the values: EP1981504B1, “THIADIAZOLE DERIVATIVES FOR THE TREATMENT OF NEURO DEGENERATIVE DISEASES” (NV reMYND, priority 2006, dated 2007).
